The results in this text go back to US10729738B2, “Hindered disulfide drug conjugates” (priority 2015, dated 2020).

In one assay the test system is SK-BR-3 cells. The assay can be described thus: In vitro IC50 of MMAE ADCs, Cell Titer-Glo, SK-BR-3. Particulars: 5 days. The assay is classed as cell-based. As for the experimental part: (§1) The in vitro IC50 of ADC compounds MMAE 1, MMAE 2, MMAE 5 and MMAE 6 against SK-BR-3 and KPL-4 cells was evaluated. The cells were plated in 96-well plates (SK-BR-3 at 5000 cell per well; KPL-4 at 1500 cells […]) in cysteine free RPMI+10% FBS+20 mM glutamine+50 pM cysteine media and allowed to adhere overnight. Media was then removed and was replaced with fresh media containing different ADC concentrations. Cell viability was measured 5 days after drug administration using Cell Titer-Glo.
(ATP-based viability assays read luminescence as a measure of living cells.)

The subject of a further assay is KPL-4 cells. The assay can be described thus: In vitro IC50 of MMAE ADCs, Cell Titer-Glo, KPL-4. In kind it is cell-based. Particulars: 5 days. How it is done:
as §1

*1 amine or outer side, *2 acyl side, *3 side chain or, on linkers, in order; H or OH if unused. Where a SMILES comes first, the peptide text is derived from it. [ ]: non-standard residue; d: D form. The star is where a group is joined. Dolaproine = CO[C@@H]([C@@H]1CCCN1)[C@@H](C)C(=O)O; X15 = C[C@H](COC(=O)*)SSc1ccc([N+](=O)[O-])cn1; Dil = CC[C@H](C)[C@H](NC)[C@@H](CC(=O)O)OC; PABC = O=C(OCc1ccc(N[*:1])cc1)[*:2]; X2 = C[C@@H](N*)[C@@H](O)c1ccccc1; NMeV = CN[C@H](C(=O)O)C(C)C

For the molecule `CC[C@H](C)[C@@H]([C@@H](CC(=O)N1CCC[C@H]1[C@H](OC)[C@@H](C)C(=O)N[C@H](C)[C@@H](O)c1ccccc1)OC)N(C)C(=O)[C@@H](NC(=O)[C@H](C(C)C)N(C)C(=O)OCc1ccc(NC(=O)OC[C@@H](C)SSc2ccc([N+](=O)[O-])cn2)cc1)C(C)C` [MMAE 6] ({X15-PABC}-[NMeV]V[Dil][Dolaproine]-X2), the “SK-BR-3 IC50” value with SK-BR-3 cells was found to be 0.78 µg/mL. Besides, the “KPL-4 IC50” value in the assay with KPL-4 cells was 0.411 µg/mL.
